The record followed here is publication PMC6465675, “Design, Synthesis, Antiviral Evaluation, and SAR Studies of New 1-(Phenylsulfonyl)-1H-Pyrazol−4-yl-Methylaniline Derivatives” (Frontiers in Chemistry, 2019).

One series relates to CVB-5. As to the kind of experiment: microbe, parasite or virus in culture. Format: cell-based, Coxsackievirus B5. The following applies: Enterovirus B, Vero 76, read-out: CVB-5 EC50.
The test system of the next series is VSV. As to the kind of experiment: microbe, parasite or virus in culture. Format: cell-based. The following applies: Vesicular stomatitis virus, Vero 76, read-out: VSV EC50.
In the next series the test system is VV. As to the kind of experiment: microbe, parasite or virus in culture. Type of series: cell-based. The following applies: Orthopoxvirus vaccinia, Vero 76, read-out: VV EC50.
The nature of series [1]: in vitro. The following applies: Mesocricetus auratus (hamster).
The nature of series [2]: in vitro. The following applies: Bos taurus (cattle).
The nature of series [3]: in vitro. The following applies: human.
The subject of series [4] is RSV. As to the kind of experiment: microbe, parasite or virus in culture. The following applies: human respiratory syncytial virus, Vero 76, read-out: RSV EC50.
Series [5] has as its system YFV. As to the kind of experiment: microbe, parasite or virus in culture. The following applies: Yellow fever virus, BHK, read-out: YFV EC50.
In another series the test system is Sb-1. As to the kind of experiment: microbe, parasite or virus in culture. Type of series: cell-based, Poliovirus type-1, Sabin strain. The following applies: Enterovirus C, Vero 76, read-out: Sb-1 EC50.
The next series relates to HSV-1. As to the kind of experiment: microbe, parasite or virus in culture. The following applies: Human alphaherpesvirus 1, Vero 76, read-out: HSV-1 EC50. Type of series: cell-based, human herpesvirus 1.
Series [6] has as its system YFV.
The test system of another series is HIV-1. As to the kind of experiment: microbe, parasite or virus in culture. The following applies: Human immunodeficiency virus 1, MT4, read-out: HIV-1 EC50.
Series [7] concerns RSV.
The test system of series [8] is YFV. Type of series: cell-based, Yellow Fever Virus.
Series [9] in a line: in vitro. The following applies: Cercopithecus aethiops (monkey), Vero76 CC50.
Series [10] relates to DENV-2. As to the kind of experiment: microbe, parasite or virus in culture. The following applies: Dengue virus, DENV2, BHK, read-out: DENV-2 EC50.
Series [11] relates to DENV-2.
Series [12] relates to WNV. As to the kind of experiment: microbe, parasite or virus in culture. The following applies: West Nile virus, BHK, read-out: WNV EC50.
In series [13] the test system is WNV.
The next series deals with Reo-1. Format: cell-based, reovirus type-1.
Series [14] relates to BVDV.
In series [15] the test system is BVDV. As to the kind of experiment: microbe, parasite or virus in culture. The following applies: Bovine viral diarrhea virus isolates and strains, MDBK, read-out: BVDV EC50.

Entries after “also recorded” stand apart in the source; their conditions may differ.

The term EC50 denotes the concentration giving half of the maximal effect. In general, melting point refers to the temperature, or range, at which the solid turns liquid. On to `O=S(=O)(c1ccccc1)n1cc(CNc2ccc(Br)cc2)c(-c2ccccc2)n1` [7c, 4-Bromo-N-[(3-phenyl-1-(phenylsulfonyl)-1H-pyrazol-4-yl)methyl]aniline], for which the melting point came out at 122 °C. The EC50 with CVB-5 worked out at 24 ± 11 µM. The EC50 in the series on VSV is above 85 µM. The EC50 with VV is above 85 µM. The compound also displayed a CC50 in “in vitro [1]” above 100 µM. In the series “in vitro [2]”, this compound came in with a CC50 above 100 µM. In the series “in vitro [3]”, this compound yielded a CC50 of 20 µM. In addition, the EC50 in the series on RSV [4] was above 3 µM. Further, in the series with YFV [5], the EC50 was 5.9 ± 0.2 µM. Also, the EC50 with Sb-1 was above 85 µM. Moreover, the EC50 with HSV-1 is above 85 µM. Also, in the series on YFV [6], the “SI CC50/EC50 (YFV)” value is above 16.9. Besides, the EC50 with HIV-1 was above 20 µM.

For the compound `O=c1cnn([C@@H]2O[C@H](CO)[C@@H](O)[C@H]2O)c(=O)[nH]1` [6-Azauridine, reference compound], the results for the CC50 in “in vitro [1]” and in “in vitro [9]” were above 100 µM and 9.3 ± 1.6 µM, respectively. Further, the “SI CC50/EC50 (RSV)” value with RSV [7] was determined as 7.2. The values for the EC50 with RSV [4] and in the series with YFV [5] were 1.3 ± 0.3 µM and 46 ± 1.5 µM, respectively. Further, the “Effect on YFV titer, compound added post infection” value in the series on YFV [8] is reported as “lost its effectiveness when added after the infection”. Also, in the series on YFV [8], the “Effect on YFV titer, compound present in pre-treatment or during infection” value is given as “reduced the YFV titer when present in the pre-treatment or during the 2 h of infection”.

As for `C[C@@]1(O)[C@H](O)[C@@H](CO)O[C@H]1n1cnc2c(=O)[nH]c(N)nc21` [NM 108, 2′-C-methylguanosin, reference compound], the EC50 stood at 1.2 ± 0.1 µM with DENV-2 [10] and 0.7 ± 0.2 µM in the series on WNV [12]. The CC50 in the series “in vitro [1]” was found to be 60 ± 3 µM. Besides, the “SI CC50/EC50 (DENV-2)” value with DENV-2 [11] is 50.0. In addition, the “SI CC50/EC50 (WNV)” value in the series with WNV [13] is reported as 85.7.

Consider `Brc1ccc(NCc2cn(-c3ccccc3)nc2-c2ccc(Br)cc2)cc1` [1g], for which the EC50 with DENV-2 [10] was 23 ± 6 µM; in the series on WNV [12], 80 ± 8.5 µM. The compound also came in with a CC50 in the series “in vitro [1]” above 100 µM. In addition, the “SI CC50/EC50 (DENV-2)” value in the series on DENV-2 [11] is on record as above 4.3. In addition, the “SI CC50/EC50 (WNV)” value with WNV [13] is reported as above 1.25.

As to `C[C@@]1(O)[C@H](O)[C@@H](CO)O[C@H]1n1ccc(N)nc1=O` [NM107, 2′-C-methylcitidine], the EC50 in the series on Reo-1 came to 7.5 ± 1.5 µM. In the series on BHK-21 cells, this compound yielded a CC50 above 100 µM.

Take `O=S(=O)(c1ccccc1)n1cc(CNc2ccc(Cl)cc2)c(-c2ccc(Br)cc2)n1` [7f, 4-Chloro-N-[(3-(4-bromophenyl)-1-(phenysulfonyl)-1H-pyrazol-4-yl)methyl]aniline]: the melting point fell in the range of 137 to 138 °C. Besides, the EC50 with CVB-5 is above 90 µM. Further, the EC50 in the series on VSV is above 90 µM. Also, the EC50 in the series with VV was above 90 µM. Further, the CC50 in “in vitro [1]” was above 100 µM. Moreover, the “SI CC50/EC50 (RSV)” value in the series with RSV [7] is recorded as 5.9. In the series “in vitro [2]”, the CC50 was above 100 µM. Moreover, the CC50 in “in vitro [3]” was above 100 µM. For the same compound, the EC50 in the series with RSV [4] is 15.3 ± 2.5 µM. The EC50 with YFV [5] was 4 ± 0.7 µM. Also, the 50% effective concentration (EC50) in the series with Sb-1 is above 90 µM. Also, the EC50 with HSV-1 is above 90 µM. The “SI CC50/EC50 (YFV)” value in the series with YFV [6] is recorded as above 25.0. The compound also displayed a CC50 in the series “in vitro [9]” of 90 ± 2 µM.

On to `Cc1ccc(NCc2cn(-c3ccccc3)nc2-c2ccc(Cl)cc2)cc1` [1n], for which the figures for the EC50 in the series on DENV-2 [10] and in the series with WNV [12] were 11.1 ± 1.6 µM and 39 ± 1 µM, respectively. This compound also registered a CC50 in “in vitro [1]” above 100 µM. In addition, in the series on DENV-2 [11], the “SI CC50/EC50 (DENV-2)” value is reported as above 9.0. Further, the “SI CC50/EC50 (WNV)” value in the series on WNV [13] was above 2.6.

Compound `O=S(=O)(c1ccccc1)n1cc(CNc2ccccc2)c(-c2ccc(Br)cc2)n1` [7e, N-[(3-(4-Bromophenyl)-1-(phenylsulfonyl)-1H-pyrazol-4-yl)methyl]aniline] came in with a melting point of 110 to 111 °C. Further, the “SI CC50/EC50 (BVDV)” value in the series on BVDV [14] is above 5.1. The EC50 in the series with CVB-5 is above 87 µM. For the same compound, the EC50 in the series with VSV was above 87 µM. In addition, the EC50 in the series on VV is above 87 µM. Besides, the CC50 in the series “in vitro [1]” was above 100 µM. The EC50 with BVDV [15] is 19.5 ± 2.1 µM. In the series on RSV [7], the “SI CC50/EC50 (RSV)” value is recorded as 4.9. The CC50 in the series “in vitro [2]” is above 100 µM. Moreover, the CC50 in “in vitro [3]” was above 100 µM. The EC50 in the series with RSV [4] is 17.8 ± 1.8 µM. Besides, in the series on YFV [5], the EC50 was 3.6 ± 0.8 µM. Further, in the series with Sb-1, the EC50 is above 87 µM. Moreover, in the series with HSV-1, the EC50 was above 87 µM. For the same compound, in the series on YFV [8], the “Effect on YFV titer, compound added post infection” value was “achieved the highest reduction of virus titer when added 2 h post infection and maintained up to 4 h post infection; also recorded: retained its inhibitory activity when added at any time p.i; also recorded: highest reduction of virus yield was observed when 7e was added 2 h post infection and maintained up to 4 h post infection”; the “Effect on YFV titer, compound present in pre-treatment or during infection” value was “reduced the YFV titer when present in the pre-treatment or during the 2 h of infection”. Besides, the “SI CC50/EC50 (YFV)” value in the series with YFV [6] is given as above 27.8. In “in vitro [9]”, this compound showed a CC50 of 87 ± 1 µM. Moreover, the EC50 with HIV-1 turned out to be 20 ± 2.4 µM.

Turning to `Clc1ccc(NCc2cn(-c3ccccc3)nc2-c2ccc(Cl)cc2)cc1` [1i], the EC50 amounted to 14.5 ± 3.5 µM in the series with DENV-2 [10] and 57.5 ± 0.5 µM in the series with WNV [12]. The CC50 in “in vitro [1]” worked out at 73 ± 1 µM. In the series with DENV-2 [11], the “SI CC50/EC50 (DENV-2)” value is 5.0. Also, the “SI CC50/EC50 (WNV)” value in the series on WNV [13] is 1.3.

Consider `Cc1ccc(NCc2cn(-c3ccccc3)nc2-c2ccc(C(F)(F)F)cc2)cc1` [1o], for which the EC50 with DENV-2 [10] amounted to 14.3 ± 0.7 µM; in the series with WNV [12], 59 ± 1.1 µM. The compound further came in with a CC50 in “in vitro [1]” of 88 ± 0.5 µM. For the same compound, the “SI CC50/EC50 (DENV-2)” value with DENV-2 [11] was determined as 6.2. In addition, the “SI CC50/EC50 (WNV)” value in the series with WNV [13] is recorded as 1.5.
